Measured values as given in patent publication EP1310250A1, “Use of the compound 2-methoxyphenyl-1-methyl-5P-methylbenzoyl-pyrrol-2-acetamido acetate for the production of an antiinflammatory drug with prevention of gastric hypersecretion and renal impairment” (MEDOSAN Ricerca S.r.l., priority 1997, dated 1999).

Assays:
[1] = system: fertility, embriotoxicity and teratogenicity; test: Fertility, embryotoxicity and teratogenicity studies, rat; format: in vivo
adverse events = test: Clinical trials: tolerability, adverse events and suspensions of treatment; design: species or system man; conditions: in vivo
Excerpt: Interest in the amtolmetin guacyl molecule arose following a thorough analysis of the results of 31 comparative and 6 non-comparative clinical trials involving 1596 patients. […] Turthermore the physician, being aware of administering an NSAID, was expecting adverse events and could not be expected to be an impartial observer. The few cases of gastro-intestinal phenomena reported with amtolmetin guacyl were transitory and in no event accompanied by the presence of occult blood in the stools. Moreover, even in the presence of a reported side-effect it was almost never necessary to suspend treatment (0.4% of suspensions).
Following are summarized the results obtained on a total of 1596 patients in 37 clinical trials.
Confirmation of the above described advantages is the very low incidence of treatment suspension for adverse events found in clinics (Table 17), which is not the case for most of NSAIDs known in the art (Table 18).

basal acid secretion = test: Basal acid secretion; conditions: amtolmetin guacyl per se
rat bone marrow = test: Micronucleus test; format: in vivo
diuresis = test: Diuresis in normally hydrated rats; format: in vivo; conditions: normally hydrated rats treated orally for 8 consecutive days (figure 13)
Experimental: In the course of various studies conducted on animals to show the lack of renal impairment, a test was carried out to compare the diuresis in normally hydrated rats treated orally for 8 consecutive days with amtolmeting guacyl and diclofenac, which is also a NSAID.

[2] = system: fertility, embriotoxicity and teratogenicity; test: Fertility, embryotoxicity and teratogenicity studies, rabbit; format: in vivo
Carcinogenesis = Carcinogenesis studies, gavage over life-span; format: in vivo, rat; conditions: gavage for a period covering the animal's life-span
[3] = system: CGRP (calcitonin gene related peptide); test: Peptone-stimulated gastric acid secretion after treatment with CGRP8-37; format: in vivo, rat; conditions: peptone-stimulated gastric acid secretion (fig. 14)
[4] = system: isolated, perfused, immature rat stomach; test: Antisecretive activity in vitro, isolated perfused immature rat stomach; conditions: for Δacid: mean±S.E.
Excerpt: Male Wistar rats, 250±10 g b.w. (Charles River, Calco, Como, Italy), quarantined for five days prior to the beginning of the trial and divided into groups of 3 animals per cage, were used for determination of gastric lesions and of ID50 determination. Immature male Wistar rats, 30-45 g b.w. (Harlan Nossan, Milano) were used for the determination of the antisecretory effect on isolated rat stomach. The guinea-pigs used were the Dunkin Hartley guinea-pigs (Harlan Nossan, Milano, Italy).
At the beginning, the isolated, perfused, immature rat stomach, treated externally with the study product, was used. We preferred to use the isolated stomach in toto rather than strips (B.R. No. 18, 19 and 20) in order not to exclude a section of the stomach (the antrum), unimportant for acid secretion but very important for the secretion of bicarbonates and bioactive peptides (b.r. No. 21, 22). The results were encouraging, since amtolmetin guacyl inhibited acid production stimulated by the three classic agonists (histamine, acetilcholine and gastrin) both using varying doses of agonist or varying doses of amtolmetin guacyl (Table 5).
The results are expressed as mean±S.E.

[5] = in vivo
[6] = system: guinea-pig isolated ileum; test: Intestinal motility in isolated ileum, various agonists; conditions: all of the traditional agonists: histamine, acetylcholine, serotonin (fig. 7, 8 and 9)
Excerpt: In parallel we also studied the possible effect on intestinal motility in the guinea-pig isolated ileum (b.r. No. 29) using various agonists (fig. 7, 8 and 9).

H2 receptors = biological target: T1, H2 receptors (Cavia porcellus, UniProt P47747); test: Effect on H2 receptors of isolated atrium, histamine stimulation; conditions: guinea-pig atrium, stimulation by histamine (fig. 5)
T1 construct: an organ in which only H2 receptors were present (guinea-pig atrium); from tissue; host or cells: guinea-pig atrium (isolated organ)
Excerpt: On the basis of the above series of observations, we decided to study the pharmacological behaviour of a number of widely used NSAIDs (including amtolmetin guacyl) towards the gastric mucosa in the rat, as previously described. […] The first hypothesis was that we were deling with an anti-H2 drug, given the fact that its potency could be compared with that of cimetidine.

rat gastric mucosa = conditions: male, Wistar, in vivo, po, 4 days
Experimental: The animals entered in the trial, randomized and divided into groups of 6 rats each, were fasted for 16 h prior to treatment, with access to water ad libitum. They were re-fed 1 h after drug administration. The compound 2-methoxyphenyl-1-methyl-5p-methylbenzoyl-pyrrol-2-acetamido acetate and the other reference NSAIDs, suspended in 1% carboxymethylcellulose (CMC) solution, were orally administered by gastric gavage in a volume of 6ml/kg for four consecutive days. Controls received the vehicle in the same way as the treated animals. 4 h after the last administration the animals were killed by ether overdose; the stomachs were removed, rinsed with 10 ml of saline and immersed in 1% formalin. They were later opened along the greater curvature and the mucosa examined for lesions.
The seriousness of the lesion was quantified according to a scale graduated from 1 to 3 according to the size of the lesions: 1= ulcer < 1mm; 2= ulcer 1-2mm; 3= ulcer > 2mm. The total sum was divided by 10 to obtain the "erosion index". The gastric lesions were evaluated by two independent investigators under blind conditions according to Main & Whittle method (BJ Pharmac 1975:53; p. 217-224).
Since the average daily dose in man (for the anti-inflammatory activity) is 600 mg, the comparative efficacious dose in the rat is in the ratio of 12:1. More precisely, comparative evaluation with the other NSAID compounds was calculated as follows: 600 mg/die: 50 mg/kg = daily dose of reference NSAID in man: X [formula] where X represents the daily dose of the reference NSAID in rat. This criterion keeps into account the "real" activity ratio in man. In this work the "ratio to rat dosage" has also been included which keeps into account ratios homogeneous to the same animal species. To evaluate the "ratio to rat dosage" the ID50 has been determined using the carrageenin-induced oedema as inflammatory test.
In order to exacerbate possible side effects on the stomach the dosage of amtolmetin guacyl was quadruplicated.

[7] = system: rat isolated stomach strips; test: Gastric motility in isolated stomach strips, acetylcholine and serotonin as agonists; conditions: acetilcholine and serotonin as agonists (fig. 10, 11 and 12)
[8] = system: post-traumatic arthralgia; test: Clinical trials: analgesic properties in post-traumatic arthralgia; format: in vivo, man; conditions: Amtolmetin guacyl 600mgx2-daily, Diclofenac 50mgx2-daily, 15 patients each
Excerpt: The same can be said in the treatment of post-traumatic arthralgia.

[9] = agonist Acetylcholine 10^-3 M, antagonist 10^-4 M
[10] = agonist Gastrin 6x10^-7 M, antagonist 10^-4 M
[11] = agonist Histamine 10^-3 M, antagonist 10^-4 M
[12] = agonist Histamine 10^-4 M, antagonist 10^-4 M
[13] = agonist Histamine 10^-4 M, antagonist 10^-5 M

T1 sequence (P47747 whole entry): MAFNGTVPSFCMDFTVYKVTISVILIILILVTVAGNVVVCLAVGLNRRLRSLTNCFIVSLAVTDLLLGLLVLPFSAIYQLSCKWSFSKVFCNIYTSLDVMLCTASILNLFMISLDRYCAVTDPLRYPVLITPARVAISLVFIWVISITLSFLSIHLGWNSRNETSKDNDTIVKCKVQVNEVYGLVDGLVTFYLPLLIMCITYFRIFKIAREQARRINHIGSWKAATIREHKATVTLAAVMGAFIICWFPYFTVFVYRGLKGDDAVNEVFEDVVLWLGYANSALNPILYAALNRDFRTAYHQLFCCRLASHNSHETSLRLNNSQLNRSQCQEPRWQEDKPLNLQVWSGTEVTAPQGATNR

## COc1ccccc1OC(=O)CNC(=O)Cc1ccc(C(=O)c2ccc(C)cc2)n1C [amtolmetin guacyl, 2-methoxyphenyl-1-methyl-5p-methylbenzoylpyrrol-2-acetamido acetate]
[1]
  fertility, embriotoxicity and teratogenicity: demonstrated the safety product
Adverse events; human
  Treatment suspended %: 0,4%
  suspensions of treatment: 0.4%
Adverse events
  variations of the routine biological parameters: no significant variations of the routine biological parameters were observed
Basal acid secretion
  effect on basal acid secretion: fails to modify basal acid secretion
Rat bone marrow
  micronucleus test: absence of amtolmetin guacyl-related damage
diuresis
  diuresis: definite increase in diuresis
[2]
  fertility, embriotoxicity and teratogenicity: demonstrated the safety product
Carcinogenesis
  Carcinogenesis: innocuity of the product
[3]
  effect of the CGRP antagonist CGRP8-37 on the activity on gastric secretion: blockage of the amtolmetin guacyl - related activity on gastric secretion
[4]; [9]
  % inhib.: 21.5%
  Δacid: 71.2 ± 5.4 nmol/min
[4]; [10]
  % inhib.: 52.1%
  Δacid: 30.7 ± 3.7 nmol/min
[4]; [11]
  % inhib.: 57.7%
  Δacid: 17.9 ± 2.1 nmol/min
[4]; [12]
  % inhib.: 62.6%
  Δacid: 19.2 ± 5.4 nmol/min
[4]; [13]
  % inhib.: 68.7%
  Δacid: 16.1 ± 5.4 nmol/min
[5]
  drug tolerability: excellent drug tolerability
[6]
  intestinal motility: decrease in motility
H2 receptors
  interference with the H2 receptors: did not interfere with the H2 receptors
Rat gastric mucosa
  Gastrolesive index: 1.0
[7]
  gastric motility: clear evidence of down-regulation of motility
[8]
  Duration: 360 min
  Latency: 20 min
  Max. time effect: 60 min
